Reference: patent US20230233569A1 (Revolution Medicines, Inc., priority 2020, published 2023)
Where two headings read alike, the source gives them in different places.

Columns and labels:
[1] = biological target: KRAS G12S (Homo sapiens, UniProt P01116+P62937, G12S); assay: Disruption of BRAF RBD interaction with Ras (FRET / MOA assay, with Cyclophilin A); type: biochemical; settings: read-out: KRAS G12S FRET data, IC50
Outline: (§1)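 TR-FRET: nucleotide-loaded K-Ras mutant or WT with Cyclophilin A and BRAF RBD, compound 10-point 3-fold from 30 μM final, 3 h at 25° C, then anti-His Eu (10 nM) and anti-GST APC (50 nM) for 1.5 h. Decreased FRET ratio versus DMSO gives IC50.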

[2] = biological target: NRAS G12C (Homo sapiens, UniProt P01111+P62937, G12C); assay: as above; type: biochemical; settings: NRAS G12C; read-out: NRAS G12C FRET data IC50
NRAS G12C, sequence (P01111 whole entry G12C): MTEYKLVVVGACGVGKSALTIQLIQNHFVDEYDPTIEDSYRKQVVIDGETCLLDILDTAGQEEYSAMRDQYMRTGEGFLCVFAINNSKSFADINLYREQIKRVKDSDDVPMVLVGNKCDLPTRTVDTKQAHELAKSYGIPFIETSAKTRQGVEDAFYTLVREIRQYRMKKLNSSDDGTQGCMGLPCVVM
NRAS G12C, sequence (P62937 whole entry): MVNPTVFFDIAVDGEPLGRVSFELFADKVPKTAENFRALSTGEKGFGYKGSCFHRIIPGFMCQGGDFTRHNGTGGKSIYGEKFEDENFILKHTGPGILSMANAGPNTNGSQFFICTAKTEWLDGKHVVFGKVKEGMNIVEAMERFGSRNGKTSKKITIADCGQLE

[3] = biological target: KRAS G12D (Homo sapiens, UniProt P01116+P62937, G12D); assay: as above; type: biochemical; settings: read-out: KRAS G12D FRET data, IC50
KRAS G12D, sequence (P01116 1-169 isoform P01116-2 G12D limits assumed): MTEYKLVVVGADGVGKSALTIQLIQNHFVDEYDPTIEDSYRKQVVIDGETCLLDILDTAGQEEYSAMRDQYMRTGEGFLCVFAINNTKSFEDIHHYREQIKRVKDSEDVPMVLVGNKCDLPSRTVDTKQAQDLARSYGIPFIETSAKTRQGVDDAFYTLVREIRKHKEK
KRAS G12D, sequence (P62937 whole entry): as the sequence (P62937 whole entry) above
Outline: as §1

[4] = biological target: KRAS G12V (Homo sapiens, UniProt P01116+P62937, G12V); assay: as above; type: biochemical; settings: KRAS G12V; read-out: KRAS G12V FRET data IC50
KRAS G12V, sequence (P01116 1-169 isoform P01116-2 G12V limits assumed): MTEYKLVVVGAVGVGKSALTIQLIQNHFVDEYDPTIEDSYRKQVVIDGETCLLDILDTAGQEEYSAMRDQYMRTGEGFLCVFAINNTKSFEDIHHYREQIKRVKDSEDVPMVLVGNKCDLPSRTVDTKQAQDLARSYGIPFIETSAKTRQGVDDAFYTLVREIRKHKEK
KRAS G12V, sequence (P62937 whole entry): as the sequence (P62937 whole entry) above
Outline: as §1

[5] = biological target: KRAS G13C (Homo sapiens, UniProt P01116+P62937, G13C); assay: as above; type: biochemical; settings: read-out: KRAS G13C FRET data, IC50
KRAS G13C, sequence (P01116 1-169 isoform P01116-2 G13C): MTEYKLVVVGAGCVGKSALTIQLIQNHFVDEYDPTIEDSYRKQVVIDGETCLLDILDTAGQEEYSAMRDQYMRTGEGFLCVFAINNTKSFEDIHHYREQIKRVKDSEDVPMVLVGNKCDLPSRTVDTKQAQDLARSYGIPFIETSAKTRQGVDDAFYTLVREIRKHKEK
KRAS G13C, sequence (P62937 whole entry): as the sequence (P62937 whole entry) above
Outline: as §1

[6] = biological target: KRAS WT (Homo sapiens, UniProt P01116+P62937); assay: as above; type: biochemical; settings: KRAS WT; read-out: KRAS WT FRET data IC50
KRAS WT, sequence (P01116 1-169 isoform P01116-2 limits assumed): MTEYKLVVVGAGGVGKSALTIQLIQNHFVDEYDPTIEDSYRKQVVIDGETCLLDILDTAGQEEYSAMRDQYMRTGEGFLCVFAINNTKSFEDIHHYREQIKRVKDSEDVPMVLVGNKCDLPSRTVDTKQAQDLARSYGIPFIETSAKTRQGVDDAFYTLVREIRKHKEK
KRAS WT, sequence (P62937 whole entry): as the sequence (P62937 whole entry) above
Outline: as §1

[7] = biological target: KRAS G13D (Homo sapiens, UniProt P01116+P62937, G13D); assay: as above; type: biochemical; settings: KRAS G13D; read-out: KRAS G13D FRET data IC50
KRAS G13D, sequence (P01116 1-169 isoform P01116-2 G13D limits assumed): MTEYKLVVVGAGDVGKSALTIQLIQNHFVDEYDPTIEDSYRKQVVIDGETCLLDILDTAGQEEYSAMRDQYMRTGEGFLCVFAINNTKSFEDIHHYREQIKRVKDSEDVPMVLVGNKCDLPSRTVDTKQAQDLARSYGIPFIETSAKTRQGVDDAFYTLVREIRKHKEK
KRAS G13D, sequence (P62937 whole entry): as the sequence (P62937 whole entry) above
Outline: as §1

[8] = biological target: KRAS G12C (Homo sapiens, UniProt P01116+P62937, G12C); assay: as above; type: biochemical; settings: read-out: KRAS G12C FRET data, IC50
KRAS G12C, sequence (P01116 1-169 isoform P01116-2 G12C): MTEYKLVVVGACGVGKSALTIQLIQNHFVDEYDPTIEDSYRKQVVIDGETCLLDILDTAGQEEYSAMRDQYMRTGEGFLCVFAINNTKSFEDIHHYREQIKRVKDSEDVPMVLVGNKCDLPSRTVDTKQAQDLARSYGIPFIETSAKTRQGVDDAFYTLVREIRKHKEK
KRAS G12C, sequence (P62937 whole entry): as the sequence (P62937 whole entry) above
Outline: as §1

[9] = test system: NCI-H358 (K-Ras G12C); assay: CellTiter-Glo cell viability assay, 5-day treatment; type: cell-based; settings: Homo sapiens, NCI-H358, 120 h, 5-day treatment; read-out: H358 Cell Viability assay data (K-Ras G12C, IC50)
Outline: (§2)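 Compounds were dispensed directly onto seeded cells and incubated for 5 days, then plates were equilibrated to room temperature for about 30 minutes before luminescence reading. Signals were expressed as percent of the mean DMSO control and fitted with a four-parameter logistic curve.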

[10] = test system: Capan-1 (K-Ras G12V); assay: as above; type: cell-based; settings: Homo sapiens, CAPAN-1, 120 h
Outline: as §2

[11] = biological target: NRAS Q61R (Homo sapiens, UniProt P01111+P62937, Q61R); assay: Disruption of BRAF RBD interaction with Ras (FRET / MOA assay, with Cyclophilin A); type: biochemical; settings: NRAS Q61R; read-out: NRAS Q61R FRET data IC50
NRAS Q61R, sequence (P01111 whole entry Q61R): as the sequence (P01111 whole entry G12C) above, with C12G, Q61R counted along it
NRAS Q61R, sequence (P62937 whole entry): as the sequence (P62937 whole entry) above
Outline: (§3)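 IC50 reflects compound-driven Ras:Cyclophilin A ternary complex displacing BRAF RBD, read as lowered TR-FRET ratio relative to DMSO after Eu anti-His (10 nM) and APC anti-GST (50 nM) detection for 1.5 h. Prior incubation 3 h, 25° C, with 12.5 nM GMPPNP-loaded Ras, 50 nM BRAF RBD, 25 μM Cyclophilin A; top compound 30 μM.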

[12] = biological target: NRAS Q61K (Homo sapiens, UniProt P01111+P62937, Q61K); assay: as above; type: biochemical; settings: NRAS Q61K; read-out: NRAS Q61K FRET data IC50
NRAS Q61K, sequence (P01111 whole entry Q61K): as the sequence (P01111 whole entry G12C) above, with C12G, Q61K counted along it
NRAS Q61K, sequence (P62937 whole entry): as the sequence (P62937 whole entry) above
Outline: as §3

[13] = biological target: KRAS Q61H (Homo sapiens, UniProt P01116+P62937, Q61H); assay: as above; type: biochemical; settings: KRAS Q61H; read-out: KRAS Q61H FRET data IC50
KRAS Q61H, sequence (P01116 1-169 isoform P01116-2 Q61H limits assumed): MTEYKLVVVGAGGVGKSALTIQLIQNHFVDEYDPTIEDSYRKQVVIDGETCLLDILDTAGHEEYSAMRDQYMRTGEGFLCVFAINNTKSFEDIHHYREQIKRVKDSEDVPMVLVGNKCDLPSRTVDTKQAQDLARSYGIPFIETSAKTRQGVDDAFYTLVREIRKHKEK
KRAS Q61H, sequence (P62937 whole entry): as the sequence (P62937 whole entry) above
Outline: as §3

[14] = biological target: NRAS WT (Homo sapiens, UniProt P01111+P62937); assay: as above; type: biochemical; settings: NRAS WT; read-out: NRAS WT FRET data IC50
NRAS WT, sequence (P01111 whole entry): as the sequence (P01111 whole entry G12C) above, with C12G counted along it
NRAS WT, sequence (P62937 whole entry): as the sequence (P62937 whole entry) above
Outline: as §3

[15] = 5-day treatment, read-out: Capan-1 Cell Viability assay data (K-Ras G12V, IC50)

KRAS G12S, sequence (P01116 1-169 isoform P01116-2 G12S limits assumed): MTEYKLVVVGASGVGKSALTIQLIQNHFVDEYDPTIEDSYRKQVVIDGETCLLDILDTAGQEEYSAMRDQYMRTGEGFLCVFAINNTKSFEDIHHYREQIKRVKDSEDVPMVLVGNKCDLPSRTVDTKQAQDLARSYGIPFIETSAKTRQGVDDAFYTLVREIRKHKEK
KRAS G12S, sequence (P62937 whole entry): as the sequence (P62937 whole entry) above

Structure (SMILES)	IC50 [1] [nM]	IC50 [2] [nM]	IC50 [3] [nM]	IC50 [4] [nM]	IC50 [5] [nM]	IC50 [6] [nM]	IC50 [7] [nM]	IC50 [8] [nM]	IC50 [9] [nM]	IC50 [10, 15] [µM]	IC50 [11] [nM]	IC50 [12] [nM]	IC50 [13] [nM]	IC50 [14] [nM]	IC50 ([10]; read-out: Capan-1 Cell Viability assay data (K-Ras G12V, IC50, uM)) [µM]
CCn1c(-c2cc(N3CCN(C)CC3)cnc2[C@H](C)OC)c2c3cc(ccc31)-c1csc(n1)C[C@H](NC(=O)[C@H](C(C)C)N(C)C(=O)[C@@H]1OCC[C@@H]1c1ccccc1)C(=O)N1CCC[C@H](N1)C(=O)OCC(C)(C)C2 (atropisomer, axis not shown) [Example A583]	100 to 1000	10 to 100	100 to 1000	100 to 1000	100 to 1000	100 to 1000	100 to 1000	10 to 100	< 10	< 0.01	10 to 100	100 to 1000	10 to 100	100 to 1000	–
CCn1c(-c2cccnc2[C@H](C)OC)c2c3cc(ccc31)-c1csc(n1)C[C@H](NC(=O)[C@H](C(C)C)N(C)C(=O)[C@@H]1CCN(C)[C@@H]1c1ccccc1)C(=O)N1CCC[C@H](N1)C(=O)OCC(C)(C)C2 [Example A464]	1000 to 10000	1000 to 10000	1000 to 10000	1000 to 10000	1000 to 10000	1000 to 10000	1000 to 10000	1000 to 10000	1000 to 10000	–	1000 to 10000	1000 to 10000	100 to 1000	1000 to 10000	1 to 10
CCn1c(-c2cccnc2[C@H](C)OC)c2c3cc(ccc31)-c1csc(n1)C[C@H](NC(=O)[C@H](C(C)C)N(C)C(=O)N1CC([C@@H](C)N(C)C)C1)C(=O)N1CCC[C@H](N1)C(=O)OCC(C)(C)C2 (atropisomer, axis not shown) [Example A458]	100 to 1000	10 to 100	100 to 1000	100 to 1000	100 to 1000	100 to 1000	100 to 1000	10 to 100	10 to 100	0.01 to 0.1	100 to 1000	10 to 100	100 to 1000	100 to 1000	–
CCn1c(-c2cccnc2[C@H](C)OC)c2c3cc(ccc31)-c1csc(n1)C[C@H](NC(=O)[C@H](C(C)C)N(C)C(=O)N1C[C@@H]3CN(C)CC[C@@H]31)C(=O)N1CCC[C@H](N1)C(=O)OCC(C)(C)C2 [Example A481]	1000 to 10000	100 to 1000	1000 to 10000	1000 to 10000	1000 to 10000	1000 to 10000	1000 to 10000	100 to 1000	10 to 100	0.01 to 0.1	1000 to 10000	100 to 1000	100 to 1000	100 to 1000	–
CCn1c(-c2cc(N3CCN(C)CC3)cnc2[C@H](C)OC)c2c3cc(ccc31)-c1csc(n1)C[C@H](NC(=O)[C@H](C(C)C)N(C)C(=O)N1C[C@@H](C)N(C)C[C@H]1C)C(=O)N1CCC[C@H](N1)C(=O)OCC(C)(C)C2 (atropisomer, axis not shown) [Example A476]	100 to 1000	10 to 100	100 to 1000	100 to 1000	100 to 1000	100 to 1000	100 to 1000	100 to 1000	< 10	< 0.01	100 to 1000	100 to 1000	100 to 1000	100 to 1000	–
CCn1c(-c2cccnc2[C@H](C)OC)c2c3cc(ccc31)-c1csc(n1)C[C@H](NC(=O)[C@H](C(C)C)N(C)C(=O)N1CC(N(C)C3CC3)C1)C(=O)N1CCC[C@H](N1)C(=O)OCC(C)(C)C2 (atropisomer, axis not shown) [Example A285]	100 to 1000	10 to 100	100 to 1000	100 to 1000	100 to 1000	100 to 1000	100 to 1000	10 to 100	10 to 100	0.01 to 0.1	100 to 1000	10 to 100	10 to 100	100 to 1000	–
CCn1c(-c2cccnc2[C@H](C)OC)c2c3cc(cnc31)-c1csc(n1)C[C@H](NC(=O)[C@H](C(C)C)N(C)C(=O)N1CC(OC)C1)C(=O)N1CCC[C@H](N1)C(=O)OCC(C)(C)C2 [Example A612]	1000 to 10000	100 to 1000	1000 to 10000	1000 to 10000	1000 to 10000	1000 to 10000	1000 to 10000	100 to 1000	100 to 1000	0.1 to 1	1000 to 10000	100 to 1000	100 to 1000	100 to 1000	–
CCn1c(-c2cccnc2[C@H](C)OC)c2c3cc(ccc31)-c1csc(n1)C[C@H](NC(=O)[C@H](C(C)C)N(C)C(=O)N1CCC[C@H]1CN(C)C)C(=O)N1CCC[C@H](N1)C(=O)OCC(C)(C)C2 [Example A519]	1000 to 10000	100 to 1000	1000 to 10000	1000 to 10000	1000 to 10000	100 to 1000	1000 to 10000	100 to 1000	1000 to 10000	1 to 10	1000 to 10000	1000 to 10000	100 to 1000	100 to 1000	–
CCn1c(-c2cccnc2[C@H](C)OC)c2c3cc(ccc31)-c1csc(n1)C[C@H](NC(=O)[C@H](C(C)C)N(C)C(=O)N1CC(C#N)C1)C(=O)N1CCC[C@H](N1)C(=O)OCC(C)(C)C2 (atropisomer, axis not shown) [Example A382]	100 to 1000	10 to 100	100 to 1000	100 to 1000	100 to 1000	100 to 1000	100 to 1000	10 to 100	< 10	0.01 to 0.1	100 to 1000	10 to 100	10 to 100	100 to 1000	–
CCn1c(-c2cccnc2[C@H](C)OC)c2c3cc(ccc31)-c1csc(n1)C[C@H](NC(=O)[C@H]1C[C@@H]1C)C(=O)N1CCC[C@H](N1)C(=O)OCC(C)(C)C2 [Example A286, (1S,2S)—N-((6^3S,4S,Z)-1^1-ethyl-1^2-(2-((S)-1-methoxyethyl)pyridin-3-yl)-10,10-dimethyl-5,7-dioxo-6^1,6^2,6^3,6^4,6^5,6^6-hexahydro-1^1H-8-oxa-2(4,2)-thiazola-1(5,3)-indola-6(1,3)-pyridazinacycloundecaphane-4-yl)-2-methylcyclopropane-1-carboxamide]	100 to 1000	100 to 1000	100 to 1000	100 to 1000	100 to 1000	100 to 1000	100 to 1000	100 to 1000	10 to 100	0.1 to 1	100 to 1000	100 to 1000	100 to 1000	100 to 1000	–
CCn1c(-c2cccnc2[C@H](C)OC)c2c3cc(ccc31)-c1csc(n1)C[C@H](NC(=O)[C@H](C(C)C)N(C)C(=O)N1CCC3(CN(C)C3)C1)C(=O)N1CCC[C@H](N1)C(=O)OCC(C)(C)C2 (atropisomer, axis not shown) [Example A503]	10 to 100	10 to 100	100 to 1000	100 to 1000	100 to 1000	10 to 100	100 to 1000	10 to 100	10 to 100	0.01 to 0.1	10 to 100	10 to 100	10 to 100	10 to 100	–
